According to ChEMBL document CHEMBL1201862, “PubChem BioAssay data set” (2004):
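Compound exposure: 48 hours, 5 concentrations, 96-well plates. GI50 = concentration required for 50% inhibition of growth.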 Activity calls are given as the source filed them. Rule as the data show it: active = GI50 up to about 1.1 µM and inactive = higher.

Tests used:
Test in all cases: NCI tumour cell line growth inhibition, 48 h
CAKI-1 = test system: CAKI-1
OVCAR-8 = test system: OVCAR-8
RXF 393 = test system: RXF 393
DU-145 = test system: DU-145
ACHN = test system: ACHN
PC-3 = test system: PC-3
EKVX = test system: EKVX
SNB-75 = test system: SNB-75
OVCAR-3 = test system: OVCAR-3
SNB-19 = test system: SNB-19
SF-295 = test system: SF-295
HOP-62 = test system: HOP-62
OVCAR-5 = test system: OVCAR-5
BT-549 = test system: BT-549
NCI-H522 = test system: NCI-H522
HCT-116 = test system: HCT-116
M14 = test system: M14
MDA-MB-435 = test system: MDA-MB-435
OVCAR-4 = test system: OVCAR-4
SF-539 = test system: SF-539

| SMILES | GI50 (CAKI-1) | GI50 (OVCAR-8) | GI50 (RXF 393) | GI50 (DU-145) | GI50 (ACHN) | GI50 (PC-3) | GI50 (EKVX) | GI50 (SNB-75) | GI50 (OVCAR-3) | GI50 (SNB-19) | GI50 (SF-295) | GI50 (HOP-62) | GI50 (OVCAR-5) | GI50 (BT-549) | GI50 (NCI-H522) | GI50 (HCT-116) | GI50 (M14) | GI50 (MDA-MB-435) | GI50 (OVCAR-4) | GI50 (SF-539) |
| --- | --- | --- | --- | --- | --- | --- | --- | --- | --- | --- | --- | --- | --- | --- | --- | --- | --- | --- | --- | --- |
| CCOC(=O)c1cc(-c2ccn(C(C)=O)c2)c(-c2cc(C)co2)[nH]1 | > 100 µM (inactive) | > 100 µM (inactive) | > 100 µM (inactive) | > 100 µM (inactive) | > 100 µM (inactive) | > 100 µM (inactive) | > 100 µM (inactive) | > 100 µM (inactive) | > 100 µM (inactive) | > 100 µM (inactive) | > 100 µM (inactive) | > 100 µM (inactive) | > 100 µM (inactive) | > 100 µM (inactive) | > 100 µM (inactive) | > 100 µM (inactive) | > 100 µM (inactive) | > 100 µM (inactive) | > 100 µM (inactive) | – |
| CC1(C)CCCCC1/C=C/C(CC(O)(C(F)(F)F)C(F)(F)F)=N\Nc1ccc([N+](=O)[O-])cc1[N+](=O)[O-] (centres undefined) | – | 2.13 µM (inactive) | 0.406 µM (active) | 2.52 µM (inactive) | 0.48 µM (active) | 0.333 µM (active) | – | 1.31 µM (inactive) | 0.409 µM (active) | 4.5 µM (inactive) | 2.42 µM (inactive) | 0.578 µM (active) | 1.57 µM (inactive) | 0.376 µM (active) | 0.49 µM (active) | 0.587 µM (active) | 4.33 µM (inactive) | 0.49 µM (active) | 1.35 µM (inactive) | 0.292 µM (active) |
| CC(=O)O[C@@H]1C=C(C)[C@H](CBr)O[C@@]2(C)CC[C@H](Br)C(C)(C)[C@H]12 | > 100 µM (inactive) | > 100 µM (inactive) | > 100 µM (inactive) | > 100 µM (inactive) | > 100 µM (inactive) | > 100 µM (inactive) | > 100 µM (inactive) | > 100 µM (inactive) | – | > 100 µM (inactive) | > 100 µM (inactive) | > 100 µM (inactive) | > 100 µM (inactive) | > 100 µM (inactive) | 38.2 µM (inactive) | > 100 µM (inactive) | > 100 µM (inactive) | > 100 µM (inactive) | > 100 µM (inactive) | > 100 µM (inactive) |
| COCN1C(=O)[C@@H]2CCCN2C(=O)c2cc([N+](=O)[O-])ccc21 | 76.7 µM (inactive) | > 100 µM (inactive) | 19 µM (inactive) | 39.8 µM (inactive) | 53.1 µM (inactive) | 36.3 µM (inactive) | > 100 µM (inactive) | 67.9 µM (inactive) | – | 96.6 µM (inactive) | 35.5 µM (inactive) | 41.1 µM (inactive) | 52.7 µM (inactive) | 62.5 µM (inactive) | 16 µM (inactive) | 86.9 µM (inactive) | > 100 µM (inactive) | 66.2 µM (inactive) | 76.9 µM (inactive) | > 100 µM (inactive) |
| Cc1cc(S(=O)(=O)Nc2n[nH]c(-c3ccc(Cl)cn3)n2)c(S)cc1Cl | 44 µM (inactive) | 48.8 µM (inactive) | 27.1 µM (inactive) | > 100 µM (inactive) | 32.9 µM (inactive) | > 100 µM (inactive) | > 100 µM (inactive) | 80.9 µM (inactive) | 45.6 µM (inactive) | 30.1 µM (inactive) | – | 76.6 µM (inactive) | > 100 µM (inactive) | 32.2 µM (inactive) | 46.1 µM (inactive) | 38.6 µM (inactive) | 76.6 µM (inactive) | 43.1 µM (inactive) | 53.8 µM (inactive) | 44.1 µM (inactive) |
| C/C(=N\Nc1nc2ccccc2n1C)c1ccc2ccccc2n1 | 0.611 µM (active) | – | 5.2 µM (inactive) | 3.86 µM (inactive) | – | 0.212 µM (active) | 0.144 µM (active) | 7.24 µM (inactive) | 0.0489 µM (active) | 4.66 µM (inactive) | 2.21 µM (inactive) | 3.13 µM (inactive) | 1.53 µM (inactive) | > 22.3 µM (inactive) | 0.416 µM (active) | 0.791 µM (active) | 1.02 µM (active) | 4.24 µM (inactive) | 0.19 µM (active) | 4.53 µM (inactive) |
| O=C1c2ccccc2C(=O)N1n1c(Cc2ccc([N+](=O)[O-])cc2)n[nH]c1=O | > 100 µM (inactive) | > 100 µM (inactive) | > 100 µM (inactive) | > 100 µM (inactive) | > 100 µM (inactive) | > 100 µM (inactive) | – | > 100 µM (inactive) | > 100 µM (inactive) | > 100 µM (inactive) | > 100 µM (inactive) | > 100 µM (inactive) | > 100 µM (inactive) | > 100 µM (inactive) | > 100 µM (inactive) | > 100 µM (inactive) | – | > 100 µM (inactive) | – | > 100 µM (inactive) |
